{
  "source": "patent US20100331233A1",
  "about": "“CRYSTAL OF XPA AND ERCC1 COMPLEX AND USES THEREOF” (priority 2007, published 2010)",
  "key": {"[1]": {"test_system": "NER activity in HeLa cell extracts", "experiment": "In vitro NER assay: excision of a 1,3-intrastrand cisplatin adduct from plasmid in HeLa cell extract with XPA peptide", "assay_type": "biochemical"}, "ERCC192-214": {"biological_target": "T1, ERCC192-214 (Homo sapiens, UniProt P07992)", "T1 construct": "an ERCC1 central domain fragment consisting of amino acids 92-214 preceded by an N-terminal hexahistidine tag; made in house; host or cells: E. coli BL21(DE3), M9 minimal media with 15N-labeled NH4Cl", "T1 sequence (P07992 92-214)": "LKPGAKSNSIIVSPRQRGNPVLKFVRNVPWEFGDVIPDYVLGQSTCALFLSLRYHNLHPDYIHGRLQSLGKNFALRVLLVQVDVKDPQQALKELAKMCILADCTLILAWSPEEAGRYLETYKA", "experiment": "15N HSQC NMR chemical shift perturbation of 15N-labeled ERCC1", "assay_type": "binding", "conditions": "15N HSQC spectrum of ERCC1-XPA complex; read-out: dissociation equilibrium constant implied by slow-exchange regime", "method": "FIG. 3 illustrates the binding of XPA67-80 in a shallow groove of ERCC1. (A) A comparison of the two dimensional HSQC spectra for ^15N-labeled ERCC192-214 in the presence and absence of an unlabeled XPA67-80 peptide. The ^15N HSQC spectra reveal significant chemical shift changes for some ERCC1 residues (labeled) in the absence or presence of unlabeled XPA67-80. (B) Combined average chemical shift perturbations are calculated as Δχave=[((Δχ1H)^2+(Δχ15N/5)^2)/2)]^1/2 for each backbone amide of ERCC1 and shown as a histogram.\nNMR experiments and determination of the structure of XPA-ERCC1 complex. All NMR data were acquired in the NMR Buffer described above. […] Backbone assignments of the free ERCC192-214 and ERCC1-XPA67-80 complex were performed using a standard set of triple-resonance experiments: HNCA/HN(CO)CA, HN(CA)CB/HN(COCA)CB and HNCO/HN(CA)CO.\nIdentification of the ERCC1 binding site in complex with XPA. The binding site for XPA on the surface of ERCC1 (FIG. 2B) was identified using two dimensional HSQC experiments. […] The ^15N HSQC spectrum of the ERCC1-XPA complex is consistent with a slow-exchange regime, implying a dissociation equilibrium constant below 1 μM for the complex. The XPA binding site on the ERCC1 central domain was identified using the backbone assignments for […] alone and in complex with XPA (see below). […]"}, "ERCC1-XPF": {"biological_target": "T2, ERCC1-XPF (Homo sapiens, UniProt P07992)", "T2 sequence (P07992 1-297)": "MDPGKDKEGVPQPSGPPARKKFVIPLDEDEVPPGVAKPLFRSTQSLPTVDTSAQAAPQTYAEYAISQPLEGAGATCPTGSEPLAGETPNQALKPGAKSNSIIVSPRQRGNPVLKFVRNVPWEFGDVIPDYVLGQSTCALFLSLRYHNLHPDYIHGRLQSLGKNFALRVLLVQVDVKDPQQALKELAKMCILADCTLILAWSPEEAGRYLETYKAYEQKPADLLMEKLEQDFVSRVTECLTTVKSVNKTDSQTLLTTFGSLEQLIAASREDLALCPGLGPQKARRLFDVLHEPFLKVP", "T2 sequence (Q92889 1-916 partner)": "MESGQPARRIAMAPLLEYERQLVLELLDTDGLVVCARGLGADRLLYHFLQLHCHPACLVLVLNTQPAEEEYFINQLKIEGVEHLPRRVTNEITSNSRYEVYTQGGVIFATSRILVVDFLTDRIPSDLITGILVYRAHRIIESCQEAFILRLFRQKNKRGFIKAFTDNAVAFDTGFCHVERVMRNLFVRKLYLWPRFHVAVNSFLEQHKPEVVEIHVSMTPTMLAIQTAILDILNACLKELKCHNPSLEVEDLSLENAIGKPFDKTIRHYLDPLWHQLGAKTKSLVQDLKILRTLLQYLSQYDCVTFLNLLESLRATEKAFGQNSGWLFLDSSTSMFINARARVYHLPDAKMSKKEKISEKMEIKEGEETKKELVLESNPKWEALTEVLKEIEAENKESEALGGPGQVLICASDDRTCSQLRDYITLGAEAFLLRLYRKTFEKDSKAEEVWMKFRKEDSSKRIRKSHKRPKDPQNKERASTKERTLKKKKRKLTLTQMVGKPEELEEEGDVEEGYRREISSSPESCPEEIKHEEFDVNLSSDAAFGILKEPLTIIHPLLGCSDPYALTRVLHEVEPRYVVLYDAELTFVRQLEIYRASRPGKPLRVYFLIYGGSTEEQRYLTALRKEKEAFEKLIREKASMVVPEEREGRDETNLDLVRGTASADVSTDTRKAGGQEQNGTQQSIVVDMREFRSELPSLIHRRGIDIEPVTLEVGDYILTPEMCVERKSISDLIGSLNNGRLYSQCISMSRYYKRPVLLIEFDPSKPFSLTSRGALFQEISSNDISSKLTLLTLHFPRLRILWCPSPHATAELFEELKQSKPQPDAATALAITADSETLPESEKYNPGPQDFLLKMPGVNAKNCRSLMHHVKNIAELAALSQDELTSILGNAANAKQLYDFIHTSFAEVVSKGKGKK", "experiment": "Nuclease assay: incision of stem-loop DNA substrate by purified ERCC1-XPF", "assay_type": "biochemical", "conditions": "92 μM peptide", "method": "Nuclease assay. A substrate consisting of a 12 base pair stem with a 22 nucleotide loop (5′-[…](T)22[…]; SEQ ID NO:7) was 5′ end labeled using a T4 polynucleotide kinase and [γ-^32P]-ATP. […] The final reaction volume was 15 μl."}},
  "note": "pKd: −log10 of the molar value. No end group written: not given here.",
  "data": [
    {"sequence": "KIIDTGGGFILEEE [XPA67-80]", "values": [
      {"measurement": "NER activity at 92 μM peptide", "setting": "[1]; HeLa cell extract, 92 μM", "result": "completely abolishes NER activity"},
      {"measurement": "effect on NER excision of the lesion-containing oligonucleotide", "setting": "[1]; HeLa cell free extract, plasmid with 1,3-cisplatin intrastrand crosslink, peptide 46 nM to 92 μM", "result": "inhibits the in vitro NER reaction"},
      {"measurement": "pKd", "setting": "ERCC192-214", "result": "> 6.00"},
      {"measurement": "effect on intrinsic nuclease activity of ERCC1-XPF", "setting": "ERCC1-XPF; 0.4 mM MnCl2", "result": "do not affect"},
      {"measurement": "effect on intrinsic nuclease activity of ERCC1-XPF", "setting": "ERCC1-XPF; 0.4 mM MnCl2, listed as XPA peptide", "result": "has no effect"}
    ]}
  ]
}
